Values of other authors in patent US11583521B2, “Long-acting injection dosage form of beta 3 adrenoreceptor agonists” (Jubilant Pharma Holdings Inc., priority 2020, dated 2023).

How the values were obtained:
[1] = neutral to acidic pH
[2] = presence of food in the GI tract

## Nc1nc(CC(=O)Nc2ccc(CCNC[C@H](O)c3ccccc3)cc2)cs1 [Mirabegron, (R)-2-(2-aminothiazol-4-yl)-4′-{2-[(2-hydroxy-2 phenylethyl)amino]ethyl}acetanilide]
[1]
  solubility in water: soluble in water between neutral to acidic pH
[2]
  bioavailability, effect of food: affected by the presence of food in the GI (Gastro-Intestinal) tract
